Target: T1, HPPK (6-Hydroxymethyl-7,8-dihydropterin pyrophosphokinase) (Escherichia coli, UniProt P26281)
T1 construct: gene folK; recombinant HPPK from pET28A, Ni-NTA purified
T1 sequence (P26281 2-159): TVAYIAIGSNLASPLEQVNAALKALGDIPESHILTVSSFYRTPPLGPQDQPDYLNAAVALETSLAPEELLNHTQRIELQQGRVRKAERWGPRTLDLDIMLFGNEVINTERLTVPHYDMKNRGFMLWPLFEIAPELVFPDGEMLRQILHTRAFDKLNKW
Test: KinaseGlo luminescence ATP-depletion assay; substrate starts the reaction and relieves CD15-3 inhibition
Type: biochemical

Nc1nc2c(c(=O)[nH]1)N=C(CO)CN2 [6-Hydroxymethyl-7,8-dihydropterin]
KinaseGlo luminescence ATP-depletion assay; substrate starts the reaction and re: HPPK reaction was initiated with the introduction of the substrate, 6-Hydroxymethyl-7,8-dihydropterin in the assay buffer

From publication PMC10256842, “Empowering drug off-target discovery with metabolic and structural analysis” (Nature Communications, 2023)
